Assay results: patent US20230075925A1, “NON-PERIPHERAL QUATERNARY AMMONIUM-MODIFIED ZINC PHTHALOCYANINE AND PREPARATION METHOD AND USE THEREOF” (FUZHOU UNIVERSITY, priority 2020, published 2023)

Experiments:
[1] = tested on: melanoma cells B16-F10 tumors (proximal and distal); experiment: PDT / anti-PD-L1 combination therapy in bilateral B16-F10 tumor-bearing mouse model (tumor inhibition rate); type: in vivo; details: for tumor inhibition rate on proximal tumors (illuminated tumors): PDT group (phthalocyanine+illumination), 100 μL of 200 μM, 685 nm 15 mW/cm^2 5 min, 14 days
Procedure: A bilateral tumor-bearing mouse model of melanoma cells B16-F10 (proximal and distal) was established. During PDT, the proximal referred to an illuminated side, and the distal referred to a non-illuminated side. The distribution and metabolism of photosensitizers in the tumor-bearing mouse were investigated by a small animal fluorescence imager and a tissue extraction method, and PDT was conducted under optimal conditions. The following 5 groups of experiments were set up, with 5 mice in each group: a PBS control group; an anti-PD-L1 antibody treatment group; a simple phthalocyanine (no illumination) treatment group; a phthalocyanine+illumination treatment group, namely a PDT group; and a phthalocyanine+illumination+anti-PD-L1 antibody treatment group, namely a combination therapy group. The anti-PD-L1 antibody was purchased from BioX cell.
In the combination therapy group, the PDT group and the simple photosensitizer group, 100 μL of a phthalocyanine compound (at a concentration of 200 μM, diluted with 0.5% CEL) was administered to each mouse. The combination therapy group and the PDT group were irradiated by a laser with a wavelength of 685 nm (at an irradiation power of 15 mW/cm^2 for 5 min) on the right tumor (proximal tumor) 8 h to 12 h after the administration. The combination therapy group was administered at 50 μg of PD-L1 antibody/mouse immediately after laser treatment, and the antibody group was administered 50 μg of PD-L1 antibody/mouse at the same time. One treatment was given on the first and fourth day separately.
From the first treatment, a body weight and a tumor volume of all mice were measured every other day, and a tumor size was calculated according to a formula: tumor volume=tumor length×width×height×π/6; after 14 consecutive days of observation, a tumor inhibition rate of each experimental group was calculated.

[2] = tested on: human cervical cancer cells Hela; experiment: Dark toxicity and photodynamic activity on Hela cells (MTT cell viability); type: cell-based; details: 4 μM
Procedure: The non-peripheral quaternary ammonium-modified zinc phthalocyanine prepared in Example 1 was dissolved in a 1% castor oil derivative (Cremophor EL, wt %) aqueous solution to prepare a 0.1 mM photosensitizer. The dark toxicity and photodynamic activity of the photosensitizer were tested on human cervical cancer cells Hela.
0.1 mM or 0.2 mM of the photosensitizer was diluted into a cell medium to prepare a cell medium containing zinc phthalocyanine complexes at different concentrations. The cancer cells were cultured in the medium containing different concentrations of zinc phthalocyanine complexes for 2 h; after staining, the medium was discarded; and after washing with PBS, the cells were added into a new medium (without zinc phthalocyanine complexes). Illumination experiment group: the cells were irradiated with red light for 30 min at a power of irradiated light at 15 mW cm^−2 using red light with a wavelength greater than 600 nm as an excitation light source; non-illumination control group: the cells were placed in the dark for 30 min. After illumination or non-illumination, a cell viability was examined by MTT. The specific experimental steps referred to “Bioorganic & Medicinal Chemistry Letters, 2006, 16, 2450-2453”. […]

B16-F10 cells = experiment: Tumor recurrence (immune memory) after re-injection of B16-F10 cells following combination therapy; type: in vivo, ICR mouse; details: combination with PD-L1 antibody; 1×10^6 B16-F10 cells injected on 7th day after therapy, observed 21 d, 5 mice
Source text: More importantly, the mice treated with a combination of the zinc phthalocyanine in Example 1 and the PD-L1 antibody have an immune memory effect, which can effectively prevent tumor recurrence. On a 7th day after the combination therapy of zinc phthalocyanine in Example 1 and PD-L1 antibody, 1×10^6 B16-F10 cells were subcutaneously injected into a left ventral side of each ICR mouse (5 mice in each group), and the mice were continued to be observed for 21 d. […] However, the mice in remaining control groups are observed to have obvious melanoma regrowth, and no ability is observed to prevent tumor recurrence.

1-[4-(aminoethyl)phenoxy] zinc phthalocyanine [Comparative Example 1, reference compound]
tumor inhibition rate on proximal tumors (illuminated tumors) [1]: 69%

C[N+](C)(C)CCc1ccc(Oc2cccc3c4nc5nc(nc6nc(nc7[n-]c(nc([n-]4)c23)c2ccccc72)-c2ccccc2-6)-c2ccccc2-5)cc1.[I-].[Zn+2] [Example 1, 1-[4-(N,N,N-trimethyl-2-aminoethyl)phenoxy] zinc phthalocyanine iodide]
cancer cells killed under red light irradiation ([2]; red light 15 mW cm^−2 for 30 min): 100% | dark toxicity (killing and growth inhibition of Hela cells without irradiation) ([2]; without irradiation, 2 h incubation): no dark toxicity | tumor inhibition rate on proximal tumors (illuminated tumors) [1]: 51% | tumor inhibition rate on distal tumors (unilluminated tumors) ([1]; combination therapy group: phthalocyanine+illumination+anti-PD-L1 antibody (50 μg/mouse)): 90% | effect on in situ tumors ([1]; combined with immune checkpoint blocker PD-L1 antibody): completely remove in situ tumors | effective rate in preventing recurrence (B16-F10 cells): 80%
